Experimental data from US20260234115A1, “LIPID COMPOUNDS, COMPOSITIONS, AND USES THEREOF” (Liberate Bio, Inc., priority 2023, published 2026).
Marks after values point to notes of the source that are not given here.

Experiments:
[1] = Dynamic light scattering: LNP particle size and PDI; format: physicochemical; details: for Particle Size (nm) / PDI: LNP compositions for in vivo mouse study; for Particle Size (nm): four formulations (F1-F4) of the lipid compound pooled, or pools of four compounds (sixteen compositions); for PDI: four formulations (F1-F4) pooled, or pools of four compounds; for PDI N/P:3 / Size (nm) N/P:3 / PDI N/P:6 / Size (nm) N/P:6: LNP
Method: (§1) Lipids and active ingredients (e.g., RNA, DNA, etc.) were assembled into LNPs using microfluidic mixing. An ethanol phase was prepared by solubilizing ionizable lipids (i.e., lipid compounds), phospholipids (e.g., DSPC), cholesterol, and PEG lipids in ethanol, at predetermined mol % ratios given in Table 2. An aqueous phase was prepared by diluting a nucleic acid cargo (e.g., firefly luciferase mRNA) in an acidified buffer (pH 4.0 citrate buffer, 50 mM). A chip with microfluidic mixing architecture (e.g., toroidal mixer) was used to mix the two phases at predetermined flow rate ratios (e.g., 9 ml/min for the aqueous phase and 3 ml/min for the ethanol phase). Resulting LNPs comprising the lipids and encapsulating the nucleic acid cargo were dialyzed against PBS pH 7.4 for 2 hours at room temperature in a 20 kDa MWCO dialysis membrane. Then, PBS was refreshed to continue dialysis overnight at 2-8 TC. Upon completion of the buffer exchange, LNPs were optionally concentrated using a ultracentrifugal unit with a 10-100 kDa MWCO membrane.
d. Dynamic Light Scattering
LNPs were diluted with PBS pH 7.4 to predetermined dilution ranges based on the process step and LNP concentration. Following mixing, the particle size and PDI were measured by a dynamic light scattering instrument.

[2] = Plate-based fluorescence (RiboGreen) assay: nucleic acid cargo content and encapsulation efficiency of LNPs; format: physicochemical; details: for EE % / mRNA Content: LNP compositions for in vivo mouse study, four formulations (F1-F4) pooled, or pools of four compounds; for EE (%) N/P:3 / EE (%) N/P:6: LNP
Method: as §1
c. Plate-Based Fluorescence (RiboGreen) Assay
Nucleic acid cargos in the LNPs were quantified by RiboGreen assay, against a nucleic acid standard curve. LNPs encapsulating nucleic acid cargo were mixed with 1× Tris-EDTA (TE) and 2% triton in TE, separately, to achieve dilutions required by the assay. Then, the samples were heated at 30° C. and vortexed at 300 rpm. Samples were plated into 96-well plates and RiboGreen reagent was added into each well. Following incubation in the dark, fluorescence was measured from the wells, and plotted against the standard curve. Nucleic acid concentration obtained from the Triton-treated samples were used for total cargo concentration quantification. Only TE diluted sample fluorescence values were used to determine the non-encapsulated (free) cargo, and their ratio was used to determine the encapsulation efficiency (EE %).

mouse organs = test: In vivo activity screening in mice: organ mean total flux (p/s) of luciferase activity after injection of F2 LNP pools (Table 6, FIG. 7A-7C); details: Mouse 1, dose 0.3 mg/kg, luciferase mRNA
Summary of the method: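 C57BL/6J mice given one tail-vein injection of pooled Formulation F2 LNPs carrying firefly luciferase mRNA (0.25-3 mg/kg) in PBS. At 4-6 h, s.c. D-luciferin given; organs imaged ex vivo by IVIS within 10-15 min, after saline cardiac perfusion. Mean total flux (p/s) per organ ROI.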

Row | Structure (SMILES) | Particle Size (nm) [1] [nm] | PDI [1] | PDI N/P:6 ([1]; Formulation F1, N/P 6) | Size (nm) N/P:6 ([1]; Formulation F1, N/P 6) [nm] | PDI N/P:6 ([1]; Formulation F2, N/P 6) | Size (nm) N/P:6 ([1]; Formulation F2, N/P 6) [nm] | PDI N/P:6 ([1]; Formulation F3, N/P 6) | Size (nm) N/P:6 ([1]; Formulation F3, N/P 6) [nm] | PDI N/P:6 ([1]; Formulation F4, N/P 6) | Size (nm) N/P:6 ([1]; Formulation F4, N/P 6) [nm] | EE % [2] [%] | mRNA Content [2] [µg/mL] | EE (%) N/P:6 ([2]; Formulation F1, N/P 6) [%] | EE (%) N/P:6 ([2]; Formulation F2, N/P 6) [%] | EE (%) N/P:6 ([2]; Formulation F3, N/P 6) [%] | EE (%) N/P:6 ([2]; Formulation F4, N/P 6) [%] | Organ Mean Total Flux Femur (mouse organs) | Organ Mean Total Flux Heart (mouse organs) | Organ Mean Total Flux Kidney (mouse organs) | Organ Mean Total Flux Liver (mouse organs) | also measured
1 | CCCCCCCC/C=C\CCCCCCCC(=O)OCC(COC(=O)CCCCCCC/C=C\CCCCCCCC)(COC(=O)CCCCCCC/C=C\CCCCCCCC)COC(=O)CCC(CCCCCC)OC(=O)NCCN1CCCC1 (stereo not drawn) [Compound 1, 2-((oleoyloxy)methyl)-2-(((4-(((2-(pyrrolidin-1-yl)ethyl)carbamoyl)oxy)decanoyl)oxy)methyl)propane-1,3-diyl dioleate] | 89.9 | 0.143 | 0.072 | 74 ± 1 | 0.069 | 89 ± 2 | 0.051 | 107 ± 3 | 0.151 | 58 ± 2 | 99 | 102.4 | 100 | 100 | 100 | 100 | 0.8 p/s (×10^6) | 0.1 p/s (×10^6) | 0.1 p/s (×10^6) | 17.5 p/s (×10^6) | PDI N/P:3 ([1]; Formulation F1, N/P 3): 0.084; Size (nm) N/P:3 ([1]; Formulation F1, N/P 3): 85 ± 4 nm; PDI N/P:3 ([1]; Formulation F2, N/P 3): 0.052; Size (nm) N/P:3 ([1]; Formulation F2, N/P 3): 99 ± 2 nm; PDI N/P:3 ([1]; Formulation F3, N/P 3): 0.037; Size (nm) N/P:3 ([1]; Formulation F3, N/P 3): 136 ± 3 nm; PDI N/P:3 ([1]; Formulation F4, N/P 3): 0.153; Size (nm) N/P:3 ([1]; Formulation F4, N/P 3): 78 ± 1 nm; EE (%) N/P:3 ([2]; Formulation F1, N/P 3): 97%; EE (%) N/P:3 ([2]; Formulation F2, N/P 3): 98%; EE (%) N/P:3 ([2]; Formulation F3, N/P 3): 97%; EE (%) N/P:3 ([2]; Formulation F4, N/P 3): 98%; Organ Mean Total Flux Lung (mouse organs): 0.5 p/s (×10^6); Organ Mean Total Flux Muscle (mouse organs): 0.6 p/s (×10^6); Organ Mean Total Flux Pancreas (mouse organs): 0.2 p/s (×10^6); Organ Mean Total Flux Spleen (mouse organs): 1.7 p/s (×10^6)
2 | CCCCC/C=C\C/C=C\CCCCCCCC(=O)OCC(COC(=O)CCCCCCC/C=C\C/C=C\CCCCC)(COC(=O)CCCCCCC/C=C\C/C=C\CCCCC)COC(=O)CCC(CCCCCC)OC(=O)NCCN1CCCC1 (stereo not drawn) [Compound 2, 2-((((9Z,12Z)-octadeca-9,12-dienoyl)oxy)methyl)-2-(((4-(((2-(pyrrolidin-1-yl)ethyl)carbamoyl)oxy)decanoyl)oxy)methyl)propane-1,3-diyl (9Z,9′Z,12Z,12′Z)-bis(octadeca-9,12-dienoate)] | 82.3 | 0.11 | 0.16 | 75 ± 8 | 0.04 | 84 ± 1 | 0.04 | 91 ± 0 | 0.18 | 65 ± 2 | 96 | 86 | 98 | 98 | 98 | 97 | 0.8 p/s (×10^6) | 0.2 p/s (×10^6) | 0.7 p/s (×10^6) | 99.8 p/s (×10^6) | Organ Mean Total Flux Lung (mouse organs): 2.6 p/s (×10^6); Organ Mean Total Flux Muscle (mouse organs): 0.5 p/s (×10^6); Organ Mean Total Flux Pancreas (mouse organs): 0.2 p/s (×10^6); Organ Mean Total Flux Spleen (mouse organs): 15.6 p/s (×10^6)
3 | CCCCC/C=C\C/C=C\CCCCCCCC(=O)OCC(COC(=O)CCCCCCC/C=C\C/C=C\CCCCC)(COC(=O)CCC(CCCCCC)OC(=O)NCCN1CCCC1)COC(=O)CCC(OCCCCCCCC)OCCCCCCCC (stereo not drawn) [Compound 6, [2-(4,4-dioctoxybutanoyloxymethyl)-2-[[(9Z,12Z)-octadeca-9,12-dienoyl]oxymethyl]-3-[4-(2-pyrrolidin-1-ylethylcarbamoyloxy)decanoyloxy]propyl](9Z,12Z)-octadeca-9,12-dienoate] | 77.9 | 0.107 | 0.172 | 69 ± 3 | 0.012 | 83 ± 1 | 0.078 | 85 ± 1 | 0.081 | 63 ± 1 | 99 | 100.1 | 100 | 100 | 100 | 100 | 6.1 p/s (×10^6) | 2.1 p/s (×10^6) | 1.3 p/s (×10^6) | 2966 p/s (×10^6) | PDI N/P:3 ([1]; Formulation F1, N/P 3): 0.09; Size (nm) N/P:3 ([1]; Formulation F1, N/P 3): 77 ± 2 nm; PDI N/P:3 ([1]; Formulation F2, N/P 3): 0.027; Size (nm) N/P:3 ([1]; Formulation F2, N/P 3): 89 ± 2 nm; PDI N/P:3 ([1]; Formulation F3, N/P 3): 0.059; Size (nm) N/P:3 ([1]; Formulation F3, N/P 3): 105 ± 5 nm; PDI N/P:3 ([1]; Formulation F4, N/P 3): 0.084; Size (nm) N/P:3 ([1]; Formulation F4, N/P 3): 65 ± 1 nm; EE (%) N/P:3 ([2]; Formulation F1, N/P 3): 99%; EE (%) N/P:3 ([2]; Formulation F2, N/P 3): 99%; EE (%) N/P:3 ([2]; Formulation F3, N/P 3): 95%; EE (%) N/P:3 ([2]; Formulation F4, N/P 3): 98%; Organ Mean Total Flux Lung (mouse organs): 17.6 p/s (×10^6); Organ Mean Total Flux Muscle (mouse organs): 8.3 p/s (×10^6); Organ Mean Total Flux Pancreas (mouse organs): 2.1 p/s (×10^6); Organ Mean Total Flux Spleen (mouse organs): 14.1 p/s (×10^6)
